The record followed here is BindingDB's records for doi:10.1016/j.bmcl.2003.08.015 (The University of Birmingham, 2003).

The test addresses T1, 3-oxoacyl-[acyl-carrier-protein] synthase 3 (Mycobacterium tuberculosis (strain ATCC 25618 / H37Rv), UniProt P9WNG3).
T1 sequence (P9WNG3 whole entry): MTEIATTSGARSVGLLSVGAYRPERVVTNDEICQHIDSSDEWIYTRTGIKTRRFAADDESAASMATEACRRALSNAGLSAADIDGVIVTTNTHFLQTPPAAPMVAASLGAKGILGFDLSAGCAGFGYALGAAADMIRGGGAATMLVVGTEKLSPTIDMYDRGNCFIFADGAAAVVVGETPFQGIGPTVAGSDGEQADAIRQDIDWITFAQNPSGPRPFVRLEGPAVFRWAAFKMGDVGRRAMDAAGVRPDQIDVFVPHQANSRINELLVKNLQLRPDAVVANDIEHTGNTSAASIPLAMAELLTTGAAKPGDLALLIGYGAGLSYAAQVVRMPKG
Kind of test: ChEBML_37595. The text has this: In vitro inhibitory activity against the recombinant Mycobacterium tuberculosis Beta-ketoacyl-ACP synthase III mtFabH condensing enzyme.

A word on the IC50: it is the concentration needed to halve the response being measured. High values mean lower potency, low ones higher potency. `CC1C(=O)SC(C)(Cc2cccc(Oc3ccccc3)c2)C1=O` (configuration not stated) [4-Hydroxy-3,5-dimethyl-5-(3-phenoxy-benzyl)-5H-thiophen-2-one]: 52 µM corresponded to half-maximal inhibition (IC50).

For `Cc1ccc(-c2ccc(CC3(C)SC(=O)C(C)C3=O)cc2)cc1` (configuration not stated) [4-Hydroxy-3,5-dimethyl-5-(4'-methyl-biphenyl-4-ylmethyl)-5H-thiophen-2-one], the IC50 is 52 µM.
